Structures are written as SMILES.

The text below walks through data of patent publication US6610646B2, “Enhanced duration fragrance delivery system having a non-distorted initial fragrance impression” (The Procter & Gamble Company, priority 2000, dated 2003).

Assay [1] is described as follows: Olfactory Intensity grading of solutions in DPG by expert panel, Initial Determination. Also on record: species or system human. The source says: (§1) To determine the ODC and the OSC for a given fragrance raw material f, an Olfactory Intensity vs. Log Concentration curve is constructed. This process is comprised of both an initial and a final determination.
Olfactory Intensity is graded for each solution from 0 to 100 by a panel of at least three expert graders composed of average artisans of ordinary skill in perfume formulation. The Olfactory Intensity at any concentration is taken to be the mean of the individual grades at that concentration. Table I below gives Olfactory Intensity grades determined in this manner for two common fragrance raw materials at three different weight percent concentration in DPG.
The Initial Determination gives the general shape of the curve and is used to establish which of the nine concentrations (Entries 1-9 in Table II) will be used for the starting fragrance raw material concentration, [f]start, and which will be used for the upper concentration limit, [f]limit, in the Final Determination. The highest concentration of fragrance raw material that gives an Olfactory Intensity below 5 is chosen as the starting concentration for the Final Determination. In the example given, [f]start is 0.00001 wt. % of 2,6-dimethyl-5-heptenal in DPG (Table II, Entry 3). The lowest concentration of fragrance raw material above [f]start for which the Olfactory Intensity of the two immediately adjacent concentrations are separated by less than 5 is chosen as the upper concentration limit for the Final Determination. In the example given, [f]limit is 0.10 wt. % of 2,6-dimethyl-5-heptenal in DPG (Table II, Entry 7).

The nature of assay [2]: Olfactory Intensity grading of solutions in DPG by expert panel, Final Determination (ODC and OSC). Also on record: species or system human. Particulars: for Olfactory Intensity: Final Determination, scale 0 to 100.
Text: Odor Detection Concentration, vD: The odor detection concentration (ODC) is defined herein as the lowest weight percent concentration of a fragrance raw material dissolved in dipropylene glycol (DPG) at which the average artisan of ordinary skill in perfume formulation can detect a fragrance raw material olfactory intensity of 10 on a scale of intensity ranging from 0 to 100.
Odor Saturation Concentration, vS: The odor saturation concentration (OSC) is defined herein as the amount of fragrance raw material, expressed as weight percent dissolved in DPG, beyond which no further odor impression is provided as measured by the average artisan of ordinary skill in perfume formulation.
as §1
Final Determination: In constructing the final curve, multiples of said starting concentration are used. The concentrations used are the starting concentration, [f]start=1c, and the multiples 5c, 10c, 20c, 40c, 80c, 160c, 320c, 640c, 1280c, 2560c, 5120c, 1024c, 2048c, 4096c, etc., up to and including the point where the multiple first surpasses [f]limit. Olfactory Intensity is graded for each solution from 0 to 100 by a panel of at least three expert graders composed of average artisans of ordinary skill in perfume formulation. The Olfactory Intensity at any concentration is taken to be the mean of the individual grades at that concentration.
The Final Determination yields values for the ODC and the OSC. The odor detection concentration (ODC) is defined herein as the lowest weight percent concentration, above [f]start, of a fragrance raw material dissolved in dipropylene glycol (DPG) at which the fragrance raw material olfactory intensity is 10 on a scale of intensity ranging from 0 to 100. The determination may require linear interpolation between two consecutive concentrations where one has an olfactory intensity below 10 and the other above 10. For 2,6-dimethyl-5-heptenal, the ODC as determined above is 0.0001 wt. % (Table III, Entry 3). The odor saturation concentration (OSC) is defined as the lowest concentration of a fragrance raw material above the ODC for which the Olfactory Intensity of the two immediately adjacent concentrations are separated by less than 5. For 2,6-dimethyl-5-heptenal, the OSC as determined above is 0.0256 wt. % (Table III, Entry 11).

The mark [3] stands for this setting: 0.0005 wt. % in DPG, scale 0 to 100, mean of panel grades.

For the molecule `CC(C)=CCCC(C)C=O` (stereo not drawn) [2,6-dimethyl-5-heptenal], the “Olfactory Intensity” value in assay [1] (Initial Determination, 0.0000001 wt. % in DPG, scale 0 to 100) was found to be 0; in assay [1] (Initial Determination, 0.000001 wt. % in DPG, scale 0 to 100), 0; in assay [1] (Initial Determination, 0.00001 wt. % in DPG, scale 0 to 100) it was 0; in assay [1] (Initial Determination, 0.0001 wt. % in DPG, scale 0 to 100), 10; in assay [1] (Initial Determination, 0.001 wt. % in DPG, scale 0 to 100) it was 55; in assay [1] (Initial Determination, 0.01 wt. % in DPG, scale 0 to 100), 81. Moreover, the “Olfactory Intensity” value came out at 83 in assay [1] (Initial Determination, 0.1 wt. % in DPG, scale 0 to 100); 84 in assay [1] (Initial Determination, 1.0 wt. % in DPG, scale 0 to 100); 84 in assay [1] (Initial Determination, 10.0 wt. % in DPG, scale 0 to 100); 0 in assay [2] (0.00001 wt. % in DPG); 6 in assay [2] (0.00005 wt. % in DPG); 10 in assay [2] (0.0001 wt. % in DPG). In addition, the “Olfactory Intensity” value in assay [2] (0.0002 wt. % in DPG) is given as 19; in assay [2] (0.0004 wt. % in DPG), 33; in assay [2] (0.0008 wt. % in DPG), 50; in assay [2] (0.0016 wt. % in DPG), 64; in assay [2] (0.0032 wt. % in DPG), 74; in assay [2] (0.0064 wt. % in DPG), 78. The “Olfactory Intensity” value worked out at 81 in assay [2] (0.0128 wt. % in DPG), 83 in assay [2] (0.0256 wt. % in DPG), 83 in assay [2] (0.0512 wt. % in DPG) and 84 in assay [2] (0.1024 wt. % in DPG). For the same molecule, the “odor saturation concentration (OSC)” value in assay [2] (lowest concentration in DPG above the ODC where intensities of the two adjacent concentrations differ by less than 5) was determined as 0.0256 wt. %. In assay [2] (lowest concentration in DPG with olfactory intensity 10 on a scale 0 to 100), the “odor detection concentration (ODC)” value was found to be 0.0001 wt. %.

`CC=CC(=O)C1C(C)C=CCC1(C)C` (stereo not drawn) [1-(2,6,6-trimethyl-3-cyclohexen-1-yl)-2-buten-1-one]: the “Olfactory Intensity” value in assay [1] (0.00004 wt. % in DPG, scale 0 to 100, mean of panel grades) is given as 30; in assay [1] (0.00009 wt. % in DPG, scale 0 to 100, mean of panel grades), 50; in assay [1] (setting [3]), 70.

As for `CC1=CC(C)C(C=O)CC1` (stereo not drawn) [2,4-dimethyl-3-cyclohexene-1-carboxaldehyde], the “Olfactory Intensity” value is listed as 30 in assay [1] (setting [3]); 50 in assay [1] (0.001 wt. % in DPG, scale 0 to 100, mean of panel grades); 70 in assay [1] (0.003 wt. % in DPG, scale 0 to 100, mean of panel grades).
